Tests used:
[1] = test system: T1, CreSAMT1; experiment: GC-MS of methyl ester product, Michaelis-Menten fit; assay type: biochemical, Citrus reticulata; settings: co-substrate SAM, Tris-HCl, KCl, pH 7.0, 35 °C
T1 construct: His-tagged (pET6xHN), E. coli BL21(DE3), Ni-IDA purified; tag cleavage not mentioned
Excerpt: GC-MS of methyl ester product, Michaelis-Menten fit on CreSAMT1

[2] = test system: T2, CreSAMT2; experiment: as above; assay type: biochemical, Citrus reticulata; settings: co-substrate SAM, Tris-HCl, KCl, pH 7.0, 25 °C
T2 construct: His-tagged (pET6xHN), E. coli BL21(DE3), Ni-IDA purified; tag cleavage not mentioned
Excerpt: GC-MS of methyl ester product, Michaelis-Menten fit on CreSAMT2

SMILES | Km ([1]; sodium salt used) [µM] | Km ([2]; sodium salt used) [µM] | Km [1] [µM] | Km [2] [µM]
Nc1ccccc1C(=O)O [AA, anthranilate] | 4.82 ± 1.53 | 18 ± 1.9 | – | –
CNc1ccccc1C(=O)O [NMA, N-methyl-2-aminobenzoic acid] | – | – | 164 ± 98.4 | 128 ± 58.9
O=C(O)c1ccccc1O [SA, salicylic acid] | – | – | 101 ± 33.5 | 53 ± 11.2
O=C(O)c1ccccc1 [BA, benzoic acid] | – | – | 61.9 ± 30.7 | 25 ± 6.89

Reference: publication PMC12968138, “CreSAMT1 is mainly responsible for the biosynthesis of characteristic aroma compound dimethyl anthranilate in Citrus reticulata ‘Chachiensis’” (Horticulture Research, 2025)
